Laboratory results reported in US20240408169A1 (priority 2023, published 2024).
*1 amine or outer side, *2 acyl side, *3 side chain or, on linkers, in order; H or OH if unused. Where a SMILES comes first, the peptide text is derived from it. Bridges are numbered along the chain shown (N, C = ends). [ ]: non-standard residue; d: D form. The star is where a group is joined. X122 = CN([C@@H](Cc1cc(Cl)ccc1C1=CCN(C(=O)C(C)(C)C)CC1)C(=O)[*:2])[*:1]; X119 = CC(=O)N1C2C=C(c3ccc(F)cc3C[C@@H](C(=O)[*:2])N(C)[*:1])CC1COC2; X151 = CN([C@@H](Cc1cc(Cl)ccc1-c1cnn(C2CCC2)c1)C(=O)[*:2])[*:1]; X26 = CN([C@@H](Cc1cc(F)ccc1-c1cnn(C2CC2)c1)C(=O)[*:2])[*:1]; NMehhhLys(Me) = CN([C@@H](CCCCCCCN(C)[*:3])C(=O)[*:2])[*:1]; X180 = CN([C@@H](Cc1cc(F)ccc1-c1cnn2c1CCC2)C(=O)[*:2])[*:1]; NMe3Pal(2-OiPr,5-Cl) = CN[C@@H](Cc1cc(Cl)cnc1OC(C)C)C(=O)O; NMe3Pal(2-OcPr,5-F) = CN[C@@H](Cc1cc(F)cnc1OC1CC1)C(=O)O; NMe(hhhLys) = CN([C@@H](CCCCCCCN[*:3])C(=O)[*:2])[*:1]; Cyclobutanecarbonyl(1-CF3) = O=C(C1(C(F)(F)F)CCC1)*; cBuCO(3,3-F2-1-CF3) = O=C(C1(C(F)(F)F)CC(F)(F)C1)*; X161 = Cc1ccc(F)cc1C[C@@H](C(=O)[*:2])N(C)[*:1]; Pro(trans-4-F) = O=C(O)[C@@H]1C[C@@H](F)CN1; X27 = O=C([C@]1(C(F)(F)F)CCCCO1)*; Gly(cPr) = N[C@H](C(=O)O)C1CC1; X129 = N#CC1(C(=O)*)CCC1

Tests used:
[1] = system: OVCAR3 cells; assay: MTT proliferation assay, OVCAR3; assay type: cell-based; conditions: 5 days compound exposure, 1:3 serial dilution starting at 10 μM;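 also: compound given as an 8- or 10-point series, one day after plating, with exposure covering roughly 3-4 cell doublings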
[2] = system: NCI-H1048 cells; assay: MTT proliferation assay, NCI-H1048; assay type: cell-based; conditions: 5 days compound exposure, 1:3 serial dilution starting at 10 μM;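 also: Dose-response in 96-well plates over 8 or 10 concentration points, with exposure spanning 3-4 cell doublings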
[3] = biological target: T1, CyclinB1/CDK1 (Homo sapiens, UniProt P14635); assay: Fluorescence Polarization (FP) competitive binding assay, Cyclin B1/Cdk1; conditions: 10 nM Cyclin B1/Cdk1, 2 nM FAM probe; average of 2-3 independent experiments; read-out: Cyclin B FP IC50;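 also: fluorescence polarization read after equilibration at room temperature, with IC50 taken from serially diluted dose-response curves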
T1 construct: purchased Eurofins, discovery 14-450

[4] = biological target: T2, CyclinE1/CDK2 (Homo sapiens, UniProt P24864); assay: Fluorescence Polarization (FP) competitive binding assay, Cyclin E1/Cdk2; conditions: 10 nM Cyclin E1/Cdk2, 2 nM FAM probe; average of 2-3 independent experiments; read-out: Cyclin E FP IC50;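 also: readings taken after two-hour equilibration at room temperature in HEPES buffer with NaCl, DTT, NP-40 and BSA, IC50 fitted from eight-concentration serial dilution series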
T2 construct: purchased Eurofins, discovery 14-475

[5] = biological target: T3, CyclinA2/CDK2 (Homo sapiens, UniProt P20248); assay: Fluorescence Polarization (FP) competitive binding assay, Cyclin A2/Cdk2; conditions: 8 nM Cyclin A2/Cdk2, 2 nM FAM probe; average of 2-3 independent experiments; read-out: Cyclin A FP IC50;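 also: plates equilibrated two hours at room temperature before polarization reading, IC50 fitted from eight-concentration compound titration curves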
T3 construct: purchased CRELUX Protein Services

SMILES	GI50 [1] [nM]	GI50 [2] [nM]	IC50 [3] [nM]	IC50 [4] [nM]	IC50 [5] [nM]
CC(C)C[C@@H]1NC(=O)[C@@H](N(C)C(=O)[C@@H](NC(=O)[C@@H]2C[C@@H](F)CN2C(=O)C2(C(F)(F)F)CC(F)(F)C2)C2CC2)CCCCCCCN(C)C(=O)[C@H](Cc2cc(Cl)ccc2-c2cnn(C3CCC3)c2)N(C)C1=O [Example 112] ({cBuCO(3,3-F2-1-CF3)}-[Pro(trans-4-F)][Gly(cPr)][NMehhhLys(Me)]L[X151]; lactam 3-C)	10	10	20	340	20
Cc1nnc(-c2ccc(Cl)cc2C[C@H]2C(=O)N(C)CCCCC=CC[C@H](N(C)C(=O)[C@@H](NC(=O)[C@@H]3C[C@@H](F)CN3C(=O)C3(C(F)(F)F)CC(F)(F)C3)C3CC3)C(=O)N[C@@H](CC(C)C)C(=O)N2C)o1 [Example 116]	50	40	20	330	40
CC(C)C[C@@H]1NC(=O)[C@@H](N(C)C(=O)[C@@H](NC(=O)[C@@H]2C[C@@H](F)CN2C(=O)C2(C#N)CCC2)C2CC2)CCCCCCCN(C)C(=O)[C@H](Cc2cc(F)ccc2-c2cnn(C3CC3)c2)N(C)C1=O [Example 122] (X129-[Pro(trans-4-F)][Gly(cPr)][NMehhhLys(Me)]L[X26]; lactam 3-C)	50	50	20	100	20
Cc1ccc(F)cc1C[C@H]1C(=O)N(C)CCCCCCC[C@H](N(C)C(=O)[C@@H](NC(=O)[C@@H]2C[C@@H](F)CN2C(=O)C2(C(F)(F)F)CC(F)(F)C2)C2CC2)C(=O)N[C@@H](CC(C)C)C(=O)N1C [Example 123] ({cBuCO(3,3-F2-1-CF3)}-[Pro(trans-4-F)][Gly(cPr)][NMehhhLys(Me)]L[X161]; lactam 3-C)	20	20	20	120	30
CC(=O)N1C2C=C(c3ccc(F)cc3C[C@H]3C(=O)N(C)CCCCCCC[C@H](N(C)C(=O)[C@@H](NC(=O)[C@@H]4C[C@@H](F)CN4C(=O)C4(C(F)(F)F)CC(F)(F)C4)C4CC4)C(=O)N[C@@H](CC(C)C)C(=O)N3C)CC1COC2 (stereo partly drawn) [Example 124] ({cBuCO(3,3-F2-1-CF3)}-[Pro(trans-4-F)][Gly(cPr)][NMehhhLys(Me)]L[X119]; lactam 3-C)	20	20	20	540	20
CC(C)C[C@@H]1NC(=O)[C@@H](N(C)C(=O)[C@@H](NC(=O)[C@@H]2C[C@@H](F)CN2C(=O)C2(C(F)(F)F)CC(F)(F)C2)C2CC2)CC=CCCCCNC(=O)[C@H](Cc2cc(F)cnc2OC2CC2)N(C)C1=O [Example 125]	550	490	20	1140	1010
CC(C)C[C@@H]1NC(=O)[C@@H](N(C)C(=O)[C@@H](NC(=O)[C@@H]2C[C@@H](F)CN2C(=O)C2(C(F)(F)F)CC(F)(F)C2)C2CC2)CC=CCCCCN(C)C(=O)[C@H](Cc2cc(F)cnc2OC2CC2)N(C)C1=O [Example 126]	310	380	20	620	500
CC(C)C[C@@H]1NC(=O)[C@@H](N(C)C(=O)[C@@H](NC(=O)[C@@H]2C[C@@H](F)CN2C(=O)C2(C(F)(F)F)CC(F)(F)C2)C2CC2)CCCCCCCNC(=O)[C@H](Cc2cc(F)cnc2OC2CC2)N(C)C1=O [Example 127] ({cBuCO(3,3-F2-1-CF3)}-[Pro(trans-4-F)][Gly(cPr)][NMe(hhhLys)]L[NMe3Pal(2-OcPr,5-F)]; lactam 3-C)	30	30	20	230	80
CC(C)C[C@@H]1NC(=O)[C@@H](N(C)C(=O)[C@@H](NC(=O)[C@@H]2C[C@@H](F)CN2C(=O)C2(C(F)(F)F)CC(F)(F)C2)C2CC2)CCCCCCCN(C)C(=O)[C@H](Cc2cc(F)cnc2OC2CC2)N(C)C1=O [Example 128] ({cBuCO(3,3-F2-1-CF3)}-[Pro(trans-4-F)][Gly(cPr)][NMehhhLys(Me)]L[NMe3Pal(2-OcPr,5-F)]; lactam 3-C)	30	30	20	190	80
CC(C)C[C@@H]1NC(=O)[C@@H](N(C)C(=O)[C@@H](NC(=O)[C@@H]2C[C@@H](F)CN2C(=O)C2(C(F)(F)F)CC(F)(F)C2)C2CC2)CCCCCCCNC(=O)[C@H](Cc2cc(Cl)cnc2OC(C)C)N(C)C1=O [Example 131] ({cBuCO(3,3-F2-1-CF3)}-[Pro(trans-4-F)][Gly(cPr)][NMe(hhhLys)]L[NMe3Pal(2-OiPr,5-Cl)]; lactam 3-C)	400	290	20	240	30
CC(C)C[C@@H]1NC(=O)[C@@H](N(C)C(=O)[C@@H](NC(=O)[C@@H]2C[C@@H](F)CN2C(=O)C2(C(F)(F)F)CCC2)C2CC2)CC=CCCCCNC(=O)[C@H](Cc2cc(F)cnc2OC2CC2)N(C)C1=O [Example 132]	380	570	20	450	710
CC(C)C[C@@H]1NC(=O)[C@@H](N(C)C(=O)[C@@H](NC(=O)[C@@H]2C[C@@H](F)CN2C(=O)C2(C(F)(F)F)CCC2)C2CC2)CC=CCCCCN(C)C(=O)[C@H](Cc2cc(F)cnc2OC2CC2)N(C)C1=O [Example 133]	260	340	20	340	470
CC(C)C[C@@H]1NC(=O)[C@@H](N(C)C(=O)[C@@H](NC(=O)[C@@H]2C[C@@H](F)CN2C(=O)C2(C(F)(F)F)CCC2)C2CC2)CCCCCCCNC(=O)[C@H](Cc2cc(F)cnc2OC2CC2)N(C)C1=O [Example 134] ({Cyclobutanecarbonyl(1-CF3)}-[Pro(trans-4-F)][Gly(cPr)][NMe(hhhLys)]L[NMe3Pal(2-OcPr,5-F)]; lactam 3-C)	40	30	20	120	100
CC(C)C[C@@H]1NC(=O)[C@@H](N(C)C(=O)[C@@H](NC(=O)[C@@H]2C[C@@H](F)CN2C(=O)C2(C(F)(F)F)CCC2)C2CC2)CCCCCCCN(C)C(=O)[C@H](Cc2cc(F)cnc2OC2CC2)N(C)C1=O [Example 135] ({Cyclobutanecarbonyl(1-CF3)}-[Pro(trans-4-F)][Gly(cPr)][NMehhhLys(Me)]L[NMe3Pal(2-OcPr,5-F)]; lactam 3-C)	20	30	20	120	80
CC(C)C[C@@H]1NC(=O)[C@@H](N(C)C(=O)[C@@H](NC(=O)[C@@H]2C[C@@H](F)CN2C(=O)C2(C(F)(F)F)CC(F)(F)C2)C2CC2)CCCCCCCN(C)C(=O)[C@H](Cc2cc(Cl)ccc2C2=CCN(C(=O)C(C)(C)C)CC2)N(C)C1=O [Example 144] ({cBuCO(3,3-F2-1-CF3)}-[Pro(trans-4-F)][Gly(cPr)][NMehhhLys(Me)]L[X122]; lactam 3-C)	70	70	20	840	20
CC(C)C[C@@H]1NC(=O)[C@@H](N(C)C(=O)[C@@H](NC(=O)[C@@H]2C[C@@H](F)CN2C(=O)[C@]2(C(F)(F)F)CCCCO2)C2CC2)CCCCCCCN(C)C(=O)[C@H](Cc2cc(F)ccc2-c2cnn(C3CC3)c2)N(C)C1=O [Example 146] (X27-[Pro(trans-4-F)][Gly(cPr)][NMehhhLys(Me)]L[X26]; lactam 3-C)	20	20	20	100	30
CC(C)C[C@@H]1NC(=O)[C@@H](N(C)C(=O)[C@@H](NC(=O)[C@@H]2C[C@@H](F)CN2C(=O)C2(C(F)(F)F)CC(F)(F)C2)C2CC2)CCCCCCCN(C)C(=O)[C@H](Cc2cc(F)ccc2-c2cnn3c2CCC3)N(C)C1=O [Example 148] ({cBuCO(3,3-F2-1-CF3)}-[Pro(trans-4-F)][Gly(cPr)][NMehhhLys(Me)]L[X180]; lactam 3-C)	10	10	20	310	30
CC(=O)N1C2C=C(c3ccc(F)cc3C[C@H]3C(=O)N(C)CCCCCCC[C@H](N(C)C(=O)[C@@H](NC(=O)[C@@H]4C[C@@H](F)CN4C(=O)C4(C(F)(F)F)CC(F)(F)C4)C4CC4)C(=O)N[C@@H](CC(C)C)C(=O)N3C)CC1CC2 (stereo partly drawn) [Example 149]	40	30	20	560	20
